Assay results: US20120214862A1, “MODULATION OF FACTOR 7 EXPRESSION” (ISIS Pharmaceuticals, Inc., priority 2009, published 2012)
In the oligonucleotide strings, read from the 5' end, every base follows the letter of its sugar. An asterisk marks phosphorothioate; unmarked linkages are phosphodiester. Other units and linkages are bracketed, terminal groups are in braces. A string of capitals states the bases alone. e = 2'-O-(2-methoxyethyl) (MOE); [5mC] = 5-methylcytosine; d = 2'-deoxy (DNA)

System: human Factor 7 mRNA
Test: Antisense inhibition of human Factor 7 mRNA in HepB3 cells, lipofectin, 50 nM, real-time RT-PCR
Type: cell-based
Details: for % Inhibition (human Factor 7 mRNA): 50 nM, ~24 h
Procedure, shortened: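 Readout is percent reduction of Factor 7 message compared with untreated cells, after correction for total RNA content quantified by RIBOGREEN®. Cultures were seeded at 4,000 cells per well and treated for about 24 hours before RNA extraction.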

[1] = Example 4, HepB3 cells, lipofectin, relative to untreated control
[2] = HepB3 cells, gapmers targeted to nucleobases 14707 to 14732 of SEQ ID NO: 1 (Table 11)
[3] = Example 6 microwalk, nucleobases 15098 to 15122 of SEQ ID NO: 1, HepB3, lipofectin
[4] = HepB3 cells, gapmers (5-10-5, 3-14-3, 2-13-5 MOE) targeted to nucleobases 4868 to 4899 of SEQ ID NO: 1
[5] = HepB3 cells, gapmers targeted to nucleobases 15188 to 15211 of SEQ ID NO: 1 (Table 13)
[6] = HepB3 cells, gapmers targeted to nucleobases 11830 to 11869 of SEQ ID NO: 1 (Table 9)

## 422189 (antisense e[5mC]*eG*e[5mC]*dG*dG*dA*dA*dG*dA*dA*dG*dG*dG*dA*d[5mC]*dG*dG*eA*eA*eG) [compound 422189]
[1]
  % Inhibition (human Factor 7 mRNA): 0%

## 422190 (antisense eG*e[5mC]*eG*d[5mC]*dG*dG*dA*dA*dG*dA*dA*dG*dG*dG*dA*d[5mC]*dG*eG*eA*eA) [compound 422190]
[1]
  % Inhibition (human Factor 7 mRNA): 12%

## 422191 (antisense eA*eG*e[5mC]*dG*d[5mC]*dG*dG*dA*dA*dG*dA*dA*dG*dG*dG*dA*d[5mC]*eG*eG*eA) [compound 422191]
[1]
  % Inhibition (human Factor 7 mRNA): 27%

## 422192 (antisense eG*eA*eG*d[5mC]*dG*d[5mC]*dG*dG*dA*dA*dG*dA*dA*dG*dG*dG*dA*e[5mC]*eG*eG) [compound 422192]
[1]
  % Inhibition (human Factor 7 mRNA): 27%

## 422193 (antisense eT*eG*eA*dG*d[5mC]*dG*d[5mC]*dG*dG*dA*dA*dG*dA*dA*dG*dG*dG*eA*e[5mC]*eG) [compound 422193]
[1]
  % Inhibition (human Factor 7 mRNA): 6%

## 422194 (antisense e[5mC]*eT*eG*dA*dG*d[5mC]*dG*d[5mC]*dG*dG*dA*dA*dG*dA*dA*dG*dG*eG*eA*e[5mC]) [compound 422194]
[1]
  % Inhibition (human Factor 7 mRNA): 11%

## 422195 (antisense eA*e[5mC]*eT*dG*dA*dG*d[5mC]*dG*d[5mC]*dG*dG*dA*dA*dG*dA*dA*dG*eG*eG*eA) [compound 422195]
[1]
  % Inhibition (human Factor 7 mRNA): 37%

## 422196 (antisense eT*eA*e[5mC]*dT*dG*dA*dG*d[5mC]*dG*d[5mC]*dG*dG*dA*dA*dG*dA*dA*eG*eG*eG) [compound 422196]
[1]
  % Inhibition (human Factor 7 mRNA): 2%

## 422197 (antisense eT*eT*eA*d[5mC]*dT*dG*dA*dG*d[5mC]*dG*d[5mC]*dG*dG*dA*dA*dG*dA*eA*eG*eG) [compound 422197]
[1]
  % Inhibition (human Factor 7 mRNA): 26%

## 422198 (antisense eG*eT*eT*dA*d[5mC]*dT*dG*dA*dG*d[5mC]*dG*d[5mC]*dG*dG*dA*dA*dG*eA*eA*eG) [compound 422198]
[1]
  % Inhibition (human Factor 7 mRNA): 50%

## 422199 (antisense eG*eG*eT*dT*dA*d[5mC]*dT*dG*dA*dG*d[5mC]*dG*d[5mC]*dG*dG*dA*dA*eG*eA*eA) [compound 422199]
[1]
  % Inhibition (human Factor 7 mRNA): 65%

## 422200 (antisense e[5mC]*e[5mC]*eT*dG*dA*dG*dG*d[5mC]*d[5mC]*dA*dG*d[5mC]*dA*dG*dA*dT*d[5mC]*eA*e[5mC]*eG) [compound 422200]
[2]
  % Inhibition of human Factor 7 mRNA levels: 58%

## 422201 (antisense eG*e[5mC]*e[5mC]*dT*dG*dA*dG*dG*d[5mC]*d[5mC]*dA*dG*d[5mC]*dA*dG*dA*dT*e[5mC]*eA*e[5mC]) [compound 422201]
[2]
  % Inhibition of human Factor 7 mRNA levels: 71%

## 422202 (antisense eA*eG*e[5mC]*d[5mC]*dT*dG*dA*dG*dG*d[5mC]*d[5mC]*dA*dG*d[5mC]*dA*dG*dA*eT*e[5mC]*eA) [compound 422202]
[2]
  % Inhibition of human Factor 7 mRNA levels: 49%

## 422203 (antisense e[5mC]*eA*eG*d[5mC]*d[5mC]*dT*dG*dA*dG*dG*d[5mC]*d[5mC]*dA*dG*d[5mC]*dA*dG*eA*eT*e[5mC]) [compound 422203]
[2]
  % Inhibition of human Factor 7 mRNA levels: 52%

## 422204 (antisense eG*e[5mC]*eA*dG*d[5mC]*d[5mC]*dT*dG*dA*dG*dG*d[5mC]*d[5mC]*dA*dG*d[5mC]*dA*eG*eA*eT) [compound 422204]
[2]
  % Inhibition of human Factor 7 mRNA levels: 72%

## 422205 (antisense eA*eG*e[5mC]*dA*dG*d[5mC]*d[5mC]*dT*dG*dA*dG*dG*d[5mC]*d[5mC]*dA*dG*d[5mC]*eA*eG*eA) [compound 422205]
[2]
  % Inhibition of human Factor 7 mRNA levels: 63%

## 422206 (antisense e[5mC]*eA*eG*d[5mC]*dA*dG*d[5mC]*d[5mC]*dT*dG*dA*dG*dG*d[5mC]*d[5mC]*dA*dG*e[5mC]*eA*eG) [compound 422206]
[2]
  % Inhibition of human Factor 7 mRNA levels: 65%

## 422207 (antisense e[5mC]*eA*e[5mC]*dA*d[5mC]*dA*dT*dG*dG*dA*dG*dT*d[5mC]*dA*dG*d[5mC]*dA*eT*e[5mC]*eG) [compound 422207]
[3]
  % Inhibition (human Factor 7 mRNA): 41%

## 422208 (antisense eG*e[5mC]*eA*d[5mC]*dA*d[5mC]*dA*dT*dG*dG*dA*dG*dT*d[5mC]*dA*dG*d[5mC]*eA*eT*e[5mC]) [compound 422208]
[3]
  % Inhibition (human Factor 7 mRNA): 56%

## 422209 (antisense eA*eG*e[5mC]*dA*d[5mC]*dA*d[5mC]*dA*dT*dG*dG*dA*dG*dT*d[5mC]*dA*dG*e[5mC]*eA*eT) [compound 422209]
[3]
  % Inhibition (human Factor 7 mRNA): 47%

## 422210 (antisense e[5mC]*eA*eG*d[5mC]*dA*d[5mC]*dA*d[5mC]*dA*dT*dG*dG*dA*dG*dT*d[5mC]*dA*eG*e[5mC]*eA) [compound 422210]
[3]
  % Inhibition (human Factor 7 mRNA): 25%

## 422211 (antisense eA*e[5mC]*eA*dG*d[5mC]*dA*d[5mC]*dA*d[5mC]*dA*dT*dG*dG*dA*dG*dT*d[5mC]*eA*eG*e[5mC]) [compound 422211]
[3]
  % Inhibition (human Factor 7 mRNA): 42%

## 422212 (antisense eG*eA*e[5mC]*dA*dG*d[5mC]*dA*d[5mC]*dA*d[5mC]*dA*dT*dG*dG*dA*dG*dT*e[5mC]*eA*eG) [compound 422212]
[3]
  % Inhibition (human Factor 7 mRNA): 30%

## 422213 (antisense eT*e[5mC]*eT*dG*d[5mC]*dA*dG*dG*dA*dG*d[5mC]*dG*dG*d[5mC]*d[5mC]*dT*dA*eA*eA*eT) [compound 422213]
[4]
  % Inhibition of human Factor 7 mRNA levels: 67%

## 422214 (antisense eT*eT*e[5mC]*dT*dG*d[5mC]*dA*dG*dG*dA*dG*d[5mC]*dG*dG*d[5mC]*d[5mC]*dT*eA*eA*eA) [compound 422214]
[4]
  % Inhibition of human Factor 7 mRNA levels: 60%

## 422216 (antisense eA*eG*eT*dT*d[5mC]*dT*dG*d[5mC]*dA*dG*dG*dA*dG*d[5mC]*dG*dG*d[5mC]*e[5mC]*eT*eA) [compound 422216]
[4]
  % Inhibition of human Factor 7 mRNA levels: 68%

## 422218 (antisense e[5mC]*eG*eA*dG*dT*dT*d[5mC]*dT*dG*d[5mC]*dA*dG*dG*dA*dG*d[5mC]*dG*eG*e[5mC]*e[5mC]) [compound 422218]
[4]
  % Inhibition of human Factor 7 mRNA levels: 70%

## 422219 (antisense e[5mC]*e[5mC]*eG*dA*dG*dT*dT*d[5mC]*dT*dG*d[5mC]*dA*dG*dG*dA*dG*d[5mC]*eG*eG*e[5mC]) [compound 422219]
[4]
  % Inhibition of human Factor 7 mRNA levels: 65%

## 422220 (antisense e[5mC]*e[5mC]*e[5mC]*dG*dA*dG*dT*dT*d[5mC]*dT*dG*d[5mC]*dA*dG*dG*dA*dG*e[5mC]*eG*eG) [compound 422220]
[4]
  % Inhibition of human Factor 7 mRNA levels: 59%

## 422221 (antisense eG*e[5mC]*e[5mC]*d[5mC]*dG*dA*dG*dT*dT*d[5mC]*dT*dG*d[5mC]*dA*dG*dG*dA*eG*e[5mC]*eG) [compound 422221]
[4]
  % Inhibition of human Factor 7 mRNA levels: 59%

## 422222 (antisense eA*eG*e[5mC]*d[5mC]*d[5mC]*dG*dA*dG*dT*dT*d[5mC]*dT*dG*d[5mC]*dA*dG*dG*eA*eG*e[5mC]) [compound 422222]
[4]
  % Inhibition of human Factor 7 mRNA levels: 55%

## 422223 (antisense eG*eA*eG*d[5mC]*d[5mC]*d[5mC]*dG*dA*dG*dT*dT*d[5mC]*dT*dG*d[5mC]*dA*dG*eG*eA*eG) [compound 422223]
[4]
  % Inhibition of human Factor 7 mRNA levels: 48%

## 422224 (antisense eG*eG*eA*dG*d[5mC]*d[5mC]*d[5mC]*dG*dA*dG*dT*dT*d[5mC]*dT*dG*d[5mC]*dA*eG*eG*eA) [compound 422224]
[4]
  % Inhibition of human Factor 7 mRNA levels: 62%

## 422225 (antisense eA*eG*eG*dA*dG*d[5mC]*d[5mC]*d[5mC]*dG*dA*dG*dT*dT*d[5mC]*dT*dG*d[5mC]*eA*eG*eG) [compound 422225]
[4]
  % Inhibition of human Factor 7 mRNA levels: 56%

## 422226 (antisense e[5mC]*eA*dT*dG*dG*dT*dG*dA*dT*dG*d[5mC]*dT*dT*d[5mC]*dT*eG*eA*eA*eT*eT) [compound 422226]
[5]
  % Inhibition of human Factor 7 mRNA levels: 41%

## 422227 (antisense eG*e[5mC]*dA*dT*dG*dG*dT*dG*dA*dT*dG*d[5mC]*dT*dT*d[5mC]*eT*eG*eA*eA*eT) [compound 422227]
[5]
  % Inhibition of human Factor 7 mRNA levels: 67%

## 422230 (antisense e[5mC]*eA*dT*dG*d[5mC]*dA*dT*dG*dG*dT*dG*dA*dT*dG*d[5mC]*eT*eT*e[5mC]*eT*eG) [compound 422230]
[5]
  % Inhibition of human Factor 7 mRNA levels: 65%

## 422231 (antisense eT*e[5mC]*dA*dG*dG*dG*d[5mC]*dT*dG*dG*dT*dT*dT*dT*dG*eG*eA*eG*eG*eA) [compound 422231]
[6]
  % Inhibition of human Factor 7 mRNA levels: 22%

## 422232 (antisense eG*eT*d[5mC]*dA*dG*dG*dG*d[5mC]*dT*dG*dG*dT*dT*dT*dT*eG*eG*eA*eG*eG) [compound 422232]
[6]
  % Inhibition of human Factor 7 mRNA levels: 41%

## 422233 (antisense eG*eG*dT*d[5mC]*dA*dG*dG*dG*d[5mC]*dT*dG*dG*dT*dT*dT*eT*eG*eG*eA*eG) [compound 422233]
[6]
  % Inhibition of human Factor 7 mRNA levels: 46%

## 422234 (antisense eT*eG*dG*dT*d[5mC]*dA*dG*dG*dG*d[5mC]*dT*dG*dG*dT*dT*eT*eT*eG*eG*eA) [compound 422234]
[6]
  % Inhibition of human Factor 7 mRNA levels: 62%

## 422235 (antisense eA*eT*dG*dG*dT*d[5mC]*dA*dG*dG*dG*d[5mC]*dT*dG*dG*dT*eT*eT*eT*eG*eG) [compound 422235]
[6]
  % Inhibition of human Factor 7 mRNA levels: 50%

## 422236 (antisense eA*eA*dT*dG*dG*dT*d[5mC]*dA*dG*dG*dG*d[5mC]*dT*dG*dG*eT*eT*eT*eT*eG) [compound 422236]
[6]
  % Inhibition of human Factor 7 mRNA levels: 44%

## 422237 (antisense e[5mC]*eA*dA*dT*dG*dG*dT*d[5mC]*dA*dG*dG*dG*d[5mC]*dT*dG*eG*eT*eT*eT*eT) [compound 422237]
[6]
  % Inhibition of human Factor 7 mRNA levels: 50%
